Test results as given in US20240408071A1, “NOVEL COMBINATION OF SEROTONIN RECEPTOR (5-HTR2B) ANTAGONIST AND AN IMMUNOMODULATOR AND CHEMOTHERAPEUTIC DRUGS FOR INHIBITION OF CANCER” (NATIONAL CENTRE FOR CELL SCIENCE, priority 2021, published 2024).

How the values were obtained:
OT-II CD4 T cells = assay: OT-II peptide-specific proliferation of CFSE-tagged OT-II CD4 T cells in vitro; format: cell-based, mouse; conditions: BW-723C86 10 μM, OT-II peptide (Ova323-339), 5 days (FIG. 12A-B)
Procedure: FIG. 12 depicts that 5-HTR2B signalling affects the antigen-specific proliferation of CD4 T cells: (A-B) Total CD4 T cells were harvested from the lymph node of OT-II mice and they were tagged with CFSE and cultured in vitro in the presence or absence of OT-II peptide (Ova323-339), IL-2, 5-HTR2B agonist BW-723C86 (10 μM), Serotonin (20 μM) or 5-HTR2B antagonist RS-127445 (15 μM) for 5 days. After 5 days the proliferation of OT-II tetramer^+ CD4 T cells was measured and plotted as histogram overlay (A) or as statistical data (B). (C-D) Flow cytometric data and statistical analysis of the percentage of intra-tumoral OT-II-tetramer^+ IFNγ^+ CD4 T cell population from the control and RS-127445 treated MC38-ova tumor-bearing mice. (E-F) Flow cytometric data and statistical analysis of the percentage of intra-tumoral OT-II-tetramer^+ IFNγ^+ CD4 T cell population from the control and RS-127445 treated MC38-ova tumor-bearing mice. […]
A simple adoptive transfer experiment was performed to study the enhancement of CTL response in general or antigen-specific. […] The CFSE-tagged total lymph node cells from […] were cultured in the presence or absence of OT-II peptide (Ova323-339) 5-HTR2B agonist (BW-723C86), serotonin, and 5-HTR2B antagonist (RS-127445) as indicated in the figure for 5 days and the proliferation was measured (FIG. 12A-B). […]

5-HTR2B receptor subtype = 5-HTR2B receptor subtype (Homo sapiens, UniProt P41595); conditions: more specific to 5-HTR2B; cited from earlier work
Chain of 5-HTR2B receptor subtype (P41595 whole entry): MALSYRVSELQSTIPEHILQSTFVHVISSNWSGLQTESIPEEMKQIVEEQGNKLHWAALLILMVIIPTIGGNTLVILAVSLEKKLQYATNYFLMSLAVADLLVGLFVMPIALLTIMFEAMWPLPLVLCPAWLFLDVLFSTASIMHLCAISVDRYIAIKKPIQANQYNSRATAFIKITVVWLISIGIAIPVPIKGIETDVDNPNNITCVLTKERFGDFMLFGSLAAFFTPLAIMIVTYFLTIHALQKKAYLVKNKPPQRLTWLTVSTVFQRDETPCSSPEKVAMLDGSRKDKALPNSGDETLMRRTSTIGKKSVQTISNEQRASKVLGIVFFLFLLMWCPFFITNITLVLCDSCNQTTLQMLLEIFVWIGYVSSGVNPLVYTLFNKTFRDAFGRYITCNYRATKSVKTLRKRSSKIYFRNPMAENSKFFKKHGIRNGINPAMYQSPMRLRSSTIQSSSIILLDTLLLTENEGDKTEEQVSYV

CC(N)Cc1c[nH]c2ccc(OCc3cccs3)cc12 (centres unmarked) [BW-723C86]
OT-II peptide-specific proliferation of OT-II CD4 T cells (OT-II CD4 T cells): significantly reduced

CC(C)c1cc(-c2ccc(F)c3ccccc23)nc(N)n1 [RS-127445]
specificity to the 5-HTR2B receptor subtype (5-HTR2B receptor subtype): ~1000 times
